Laboratory results as given in patent US12544357B2, “Compositions and methods for the treatment of Plasmodium falciparum malaria” (priority 2021, dated 2026).
Like-named read-outs stand apart in the source and are kept apart here.

Legend:
[1] = test system: P. falciparum strain 3D7 parasites; experiment: parasite killing assay, P. falciparum 3D7, pLDH readout; format: cell-based, Plasmodium falciparum; conditions: ring stage
Description: P. falciparum strain 3D7 parasites were synchronized to the ring stage and incubated with a dilution series of compound or media control for 48 hours followed by quantification of parasitemia by Plasmodium lactate dehydrogenase assay (pLDH) assay.
(§1) P. falciparum strain 3D7 (Panels A and C) or 3D7 PfGARP KO (Panel B) parasites were synchronized to the ring stage and incubated with a dilution series of compound or media control for 48 hours followed by quantification of parasitemia by pLDH assay.
(§2) A limited structure-activity relationship (SAR) study was then conducted, evaluating 48 analog compounds having the same backbone (black in FIG. 3 inset and FIG. 4), but varying R groups (red) using P. falciparum strain 3D7 and 3D7 PfGARP KO parasites. For the SAR study, 3D7 or 3D7 PfGARP KO parasites were synchronized to the ring stage and incubated with a dilution series of compounds or media control for 48 hours followed by quantification of parasitemia by Plasmodium lactate dehydrogenase assay (pLDH) assay.^30 Each dilution was evaluated in quadruplicate. In all experiments, DMSO concentration was <0.1%.
The small molecule compounds shown in FIG. 4 were tested for their abilities to kill P. falciparum strain 3D7 parasites.

PfGARP-A = PfGARP-A (Plasmodium falciparum, UniProt Q9U0N1); experiment: surface plasmon resonance (SPR) binding on BiaCore100
Source text: Drugs were immobilized to a CM5 sensorchip and probed with varying concentrations of full length PfGARP on a BiaCore100.
PfGARP-A was immobilized to a sensorchip and probed with varying concentrations of drug on a BiaCore100.

P. falciparum parasites = experiment: parasite apoptosis assays (JC-1, TUNEL, ApoStat staining); format: cell-based, Plasmodium falciparum
Description: (§3) To assess the morphological effects of compound ID #9081579, 3D7 or 3D7 PfGARP KO parasites were synchronized to the ring stage and incubated with 100 μM 9081579 or vehicle control for 48 hours. […] This induction of apoptosis is further supported by caspase activation and mitochondrial depolarization assays induced by compounds ID #9081579 and ID #9078424 (see FIG. 7).

3D7 parasites = experiment: morphological effects on 3D7 parasites; format: cell-based, Plasmodium falciparum; conditions: 100 μM, 48 hours
Description: (§4) FIG. 6 illustrates the morphological changes that occur when compound ID #9081579 activates parasite apoptosis in P. falciparum strain 3D7 (Panel C), or 3D7 PfGARP KO (Panel B) incubated with 100 μM ID #9081579 (Panels A-B) or vehicle control (Panel A) for 48 hours.
as §3

BeWo cells = experiment: BeWo crystal violet viability assay; format: cell-based, human
Description: BeWo, a human choriocarcinoma cell line, were grown in the presence of increasing concentrations of ID #9081579 or vehicle alone and cell concentration was measured using a crystal violet viability assay performed 48 hours after addition of drug. Points represent the mean of three independent technical replicates. Bars represent SD.
BeWo cells are a human placental cell line that originates from a choriocarcinoma.^31 These cells have been used widely as an in vitro model to study placental uptake of a variety of nutrients including glucose, amino acids, and iron. BeWo choriocarcinoma cells were grown in the presence of increasing concentrations of compound ID #9081579 or vehicle alone. Cell concentration was measured using a crystal violet viability assay performed 48 hours after addition of drug.

[2] = test system: P. falciparum 3D7 strain parasites; experiment: NSG/P. falciparum humanized mouse model, 3D7; format: in vivo, Plasmodium falciparum; conditions: 100 mg/kg IP every 8 hours for 4 days, Pf3D7
Description: Drugs were evaluated in the NSG/P. falciparum humanized mouse model. Mice were reconstituted with human RBC, infected with P. falciparum 3D7 strain parasites and treated with drug or vehicle control (100 mg/kg dosed IP every 8 hours for 4 days). Parasitemia was monitored by microscopy. Results representative of two independent experiments.
The NSG mouse (NOD scid gamma mouse) is a brand of immunodeficient laboratory mice, which carries the strain non-obese diabetic (NOD). The efficacy of both lead compounds ID #9081579 and ID #9078424 were evaluated in the NSG/P. falciparum humanized mouse model.^32,33,34,35
Briefly, NSG mice (NOD.Cg-Prkdc^scidII2rg^tm1Wjl/SzJ; JAX Cat #005557) were reconstituted with human RBC (huRBC) by daily IP injections with 1 mL of huRBC at 50% hematocrit. On day 12, mice were infected with of 2×10^7 Pf3D7 infected huRBCs via tail vein injection. On day 15, mice were injected IP with ID #9081579 or ID #9078424 at 100 mg/kg final dose (approximately 2 mg per mouse in 5% DMSO/95% PEG400 vehicle) or vehicle alone. Mice were treated with drug or vehicle control every 8 hours for 4 days. This dose and schedule was designed to maintain plasma drug levels above 50 μM, as informed by our single dose PK study in Example 5.

[3] = test system: P. falciparum 3D7^0087/N9 strain parasites; experiment: NSG/P. falciparum humanized mouse model, adapted strain; format: in vivo, Plasmodium falciparum; conditions: 100 mg/kg IP every 8 hours for 4 days, adapted strain 3D70087/N9
Description: ID #9081579 was evaluated in the NSG/P. falciparum humanized mouse model. Mice were reconstituted with human RBC, infected with P. falciparum 3D7^0087/N9 strain parasites and treated with drug or vehicle control (100 mg/kg dosed IP every 8 hours for 4 days). Parasitemia was monitored by microscopy.
Just prior to submission, we have repeated this experiment using ID #9081579 and an adapted parasite strain (3D70087/N9).

strain INDO = experiment: parasite killing in chloroquine and quinine resistant strain INDO; format: cell-based; conditions: Plasmodium falciparum
3D7 PfGARP KO parasites [4] = experiment: parasite killing assay, 3D7 PfGARP KO, pLDH readout; format: cell-based, Plasmodium falciparum; conditions: 48 hours
Description: as §1, §2

3D7 PfGARP KO parasites [5] = experiment: morphological effects on 3D7 PfGARP KO parasites; format: cell-based, Plasmodium falciparum; conditions: 100 μM, 48 hours
Description: as §4, §3

Human WBC (CD45+) = experiment: human WBC viability by 7AAD/annexin V flow cytometry; format: cell-based
Description: Cells were stained with 7AAD and annexin V and analyzed by flow cytometry to assess viability (7AAD−, annexin V−), necrosis (7AAD+, annexin V−), early apoptosis (7AAD−, annexin V+), and late apoptosis (7AAD+, annexin V+).
Human WBC (CD45+) were incubated in the presence of increasing concentrations of compound ID #9081579 or vehicle alone for 48 hours. Cells were stained with 7AAD and annexin V and analyzed by flow cytometry to assess viability (7AAD−, annexin V−), necrosis (7AAD+, annexin V−), early apoptosis (7AAD−, annexin V+), and late apoptosis (7AAD+, annexin V+).

[6] = test system: P. falciparum 3D7 strain parasites; conditions: artesunate at 50 and 100 mg/kg, literature ref 36; cited from earlier work
PfGARP (aa 377-560) = target: T1, PfGARP (aa 377-560) (Plasmodium falciparum, UniProt P13816); experiment: 1H-15N HSQC binding signature
T1 construct: made in house
Description: Spectra were collected on a 600 MHz Bruker spectrometer at 17° C. from samples with PfGARP (aa 377-560) alone (Red), or in complex with ID #9078424 (Blue).
Two-dimension (2D) heteronuclear single quantum coherence (HSQC) spectroscopy was used to characterize the binding of ID #9078424 to PfGARP.
Using a series of recombinant PfGARP fragments, ^1H-^15N HSQC experiments were performed using PfGARP with and without ID #9078424. These experiments confirmed predictions that PfGARP was largely an intrinsically disordered protein.

[7] = FIG. 8 legend: drugs immobilized to CM5 sensorchip
[8] = PfGARP-A immobilized to sensorchip, probed with drug
[9] = increasing concentrations, 48 hours

PfGARP-A, sequence (Q9U0N1 entry or part of it): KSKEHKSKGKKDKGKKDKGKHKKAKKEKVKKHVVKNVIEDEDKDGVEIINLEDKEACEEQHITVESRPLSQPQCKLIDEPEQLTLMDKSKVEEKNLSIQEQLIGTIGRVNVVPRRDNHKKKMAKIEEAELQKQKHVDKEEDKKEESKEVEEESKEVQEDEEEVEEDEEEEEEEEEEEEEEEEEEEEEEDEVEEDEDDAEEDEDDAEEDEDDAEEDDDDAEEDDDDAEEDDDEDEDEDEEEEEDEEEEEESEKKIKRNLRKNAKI
T1 sequence (P13816 377-560): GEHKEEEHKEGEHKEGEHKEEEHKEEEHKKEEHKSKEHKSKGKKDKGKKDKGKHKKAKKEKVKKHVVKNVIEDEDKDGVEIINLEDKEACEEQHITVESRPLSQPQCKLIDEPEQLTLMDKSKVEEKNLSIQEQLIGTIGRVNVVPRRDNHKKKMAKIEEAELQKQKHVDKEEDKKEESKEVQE

| Compound | IC50 ([1]; 48 hours, read-out: IC50) | further results |
| --- | --- | --- |
| CS(=O)(=O)N(CC(=O)N1CCCC1)c1ccc2c(c1)OCCO2 [ID #7639273] | > 10000 µM | – |
| CC1CCN(C(=O)C(C)N(c2ccc3c(c2)OCCO3)S(C)(=O)=O)CC1 (stereo not drawn) [ID #9084012] | 80.2 µM | – |
| CCOc1ccccc1NC(=O)C(C)N(c1ccc2c(c1)OCCO2)S(C)(=O)=O (stereo not drawn) [ID #9077487] | 49.6 µM | – |
| CSc1cccc(NC(=O)C(C)N(c2ccc3c(c2)OCCO3)S(C)(=O)=O)c1 (stereo not drawn) [ID #9081579] | 1.88 µM | SPR kinetics (PfGARP-A; [7]): fast on, slow off kinetics; SPR kinetics (PfGARP-A; [8]): fast on/off kinetics; parasite apoptosis (JC-1, TUNEL, ApoStat staining) (P. falciparum parasites): activate parasite apoptosis; morphological changes (3D7 parasites): dysmorphic, shrunken features with pyknotic nuclei; highest non-toxic concentration relative to IC50 for parasites (BeWo cells; BeWo cells): 50 fold; concentration causing loss of viability (no loss up to highest concentration tested) (BeWo cells; BeWo cells, 48 hours, crystal violet): > 200 µM; growth of BeWo cells (BeWo cells; [9]): does not inhibit the growth of BeWo cells; parasitemia [2]: no detectible parasitemia after three days of drug treatment; parasitemia [3]: rapidly eliminated parasitemia; IC50 (strain INDO): 5 to 8 µM; parasite killing activity in PfGARP KO parasites (3D7 PfGARP KO parasites [4]): no activity; morphological changes (3D7 PfGARP KO parasites [5]): not observed; IC50 ([1]; Plasmodium falciparum, 3D7, 48 h, read-out: IC50): 1.8 to 4.8 µM; highest non-toxic concentration relative to IC50 for parasites (Human WBC (CD45+); human WBC (CD45+)): 100 fold; concentration causing loss of viability (no loss up to highest concentration tested) (Human WBC (CD45+); human WBC (CD45+), 48 hours): > 400 µM; cytotoxicity to human white blood cells (Human WBC (CD45+); [9]): not cytotoxic |
| CC(C(=O)NC1CCCCCC1)N(c1ccc2c(c1)OCCO2)S(C)(=O)=O (stereo not drawn) [ID #9083885] | 57.2 µM | – |
| C[C@H]1[C@H](OC(=O)CCC(=O)O)O[C@@H]2O[C@@]3(C)CC[C@H]4[C@H](C)CC[C@@H]1[C@@]24OO3 [artesunate] | – | parasite clearance [6]: rapid clearance |
| CC(C(=O)N1CCCC1)N(c1ccc2c(c1)OCCO2)S(C)(=O)=O (stereo not drawn) [ID #9080993] | > 10000 µM | – |
| CC(C(=O)N1CCOCC1)N(c1ccc2c(c1)OCCO2)S(C)(=O)=O (stereo not drawn) [ID #9075078] | > 10000 µM | – |
| Cc1cccc(C)c1NC(=O)C(C)N(c1ccc2c(c1)OCCO2)S(C)(=O)=O (stereo not drawn) [ID #9084931] | 68.5 µM | – |
| CC(C(=O)NC1CCCCC1)N(c1ccc2c(c1)OCCO2)S(C)(=O)=O (stereo not drawn) [ID #9083607] | 160 µM | – |
| COc1ccc(N(C(C)C(=O)Nc2ccc3c(c2)OCCO3)S(C)(=O)=O)cc1 (stereo not drawn) [ID #7123771] | > 10000 µM | – |
| CC(C(=O)NC1CC2CCC1C2)N(c1ccc2c(c1)OCCO2)S(C)(=O)=O (stereo not drawn) [ID #9085023] | 46.8 µM | – |
| CC(C(=O)N1CCCCC1)N(c1ccc2c(c1)OCCO2)S(C)(=O)=O (stereo not drawn) [ID #9082855] | 70.3 µM | – |
| CC(C(N)=O)N(c1ccc2c(c1)OCCO2)S(C)(=O)=O (stereo not drawn) [ID #9076661] | 132 µM | – |
| Cc1cccc(NC(=O)C(C)N(c2ccc3c(c2)OCCO3)S(C)(=O)=O)c1 (stereo not drawn) [ID #9083036] | 80.8 µM | – |
| CC(C(=O)Nc1ccccc1Cl)N(c1ccc2c(c1)OCCO2)S(C)(=O)=O (stereo not drawn) [ID #9078424] | 4.39 µM | SPR kinetics (PfGARP-A; [7]): fast on, slow off kinetics; SPR kinetics (PfGARP-A; [8]): fast on/off kinetics; parasite apoptosis (JC-1, TUNEL, ApoStat staining) (P. falciparum parasites): activate parasite apoptosis; parasitemia [2]: no detectible parasitemia after three days of drug treatment; binding to PfGARP fragment aa 377-560 (PfGARP (aa 377-560)): specific drug binding; IC50 ([1]; 48 hours): 4.4 µM |
| CN(C)CCNC(=O)CN(c1ccc2c(c1)OCCO2)S(C)(=O)=O [ID #9134158] | 134 µM | – |
| CNC(=O)CN(c1ccc2c(c1)OCCO2)S(C)(=O)=O [ID #7626390] | > 10000 µM | – |
| COc1cccc(NC(=O)C(C)N(c2ccc3c(c2)OCCO3)S(C)(=O)=O)c1 (stereo not drawn) [ID #9085101] | > 10000 µM | – |
| Cc1ccccc1NC(=O)C(C)N(c1ccc2c(c1)OCCO2)S(C)(=O)=O (stereo not drawn) [ID #9072806] | 85.3 µM | – |
| CC(C(=O)Nc1ccccc1)N(c1ccc2c(c1)OCCO2)S(C)(=O)=O (stereo not drawn) [ID #9083000] | 182 µM | – |
| CC(C(=O)N1CCN(C)CC1)N(c1ccc2c(c1)OCCO2)S(C)(=O)=O (stereo not drawn) [ID #9072406] | 412 µM | – |
| COc1ccccc1NC(=O)C(C)N(c1ccc2c(c1)OCCO2)S(C)(=O)=O (stereo not drawn) [ID #9084682] | > 10000 µM | – |
| CC(C(=O)NC1CC1)N(c1ccc2c(c1)OCCO2)S(C)(=O)=O (stereo not drawn) [ID #9083268] | 387 µM | – |
| CC(C(=O)N(C)C)N(c1ccc2c(c1)OCCO2)S(C)(=O)=O (stereo not drawn) [ID #9082916] | 509 µM | – |
| CS(=O)(=O)N(CC(=O)N1CCCCCC1)c1ccc2c(c1)OCCO2 [ID #7627706] | 143 µM | – |
| CS(=O)(=O)N(CC(=O)NCCCN1CCCC1)c1ccc2c(c1)OCCO2 [ID #9146302] | 124 µM | – |
| CS(=O)(=O)N(CC(=O)N1CCOCC1)c1ccc2c(c1)OCCO2 [ID #7641147] | 355 µM | – |
| CC(C(=O)NC1CCCC1)N(c1ccc2c(c1)OCCO2)S(C)(=O)=O (stereo not drawn) [ID #9074663] | 235 µM | – |
